# Results reported in US6916800B2, “Combination therapy including a matrix metalloproteinase inhibitor and an antineoplastic agent” (Pfizer Inc, priority 1998, dated 2005).
# Assays:
# melanoma = conditions: 100 mg/kg; cited from earlier work
# [1] = 50 mg/kg bid. p.o.; cited from earlier work
# [2] = system: advanced, rapidly progressive, treatment-refractory solid tumor cancers (colorectal, pancreatic, ovarian, prostate); conditions: cited from earlier work
# [3] = dose of 25 mg/kg/day; cited from earlier work
# PC-3 tumor cells = test: Pancreatic Cell (PC-3) Model: MMP inhibitor with cisplatin, tumor volume; type: in vivo; conditions: PC3 model, n=10
# Method: 1. Pancreatic Cell (PC-3) Model:
# In this study, the test groups were a vehicle control, Compound M14, Compound M14 with cisplatin and cisplatin alone with n=10 for each group. The tumors were measured with a caliper and the volume calculated using the formula for the volume of an elipsoid. The cisplatin dose was 10 mpk administered by the intraperitonal route on day 8 post injecion of tumor cells Compound M14, 50 mpk, was first administered about 6:00 pm the evening of the same day that the tumor cells were injected in the morning. The same dose of Compound M14 was administered bid for each following day. Tumor volume (mm^3) was measured on day 25.
# MX-1 breast tumor = test: Breast Tumor Model: MX-1 with Compound M14 and Taxol, tumor volume; type: in vivo, nude mice; conditions: for Tumor Volume at Day 25: MX-1 model, nude mice
# Method: This study was carried out essentially as PC-3 model. MX-1 breast tumor pieces were implanted (with a trocar) into nude mice with n=10 per group. Dosing with Compound M14 (10 mpk or 50 mpk, PO bid) was initiated when the tumors reached a size of 60-120 mg. Dosing was continued for 26 days. Taxol was administered at a dose of 9 mpk for the first five days following the start of dosing by the interperitonal route. The tumors were measured using a caliper and the volume calculated using the formula for the volume of an elipsoid.
# MX-1 tumors [4] = test: MX-1 Adjuvant Model: cyclophosphamide then MMPI, mean days to tumor weight of 1.5 g; type: in vivo, Mice
# Method: Mice were implanted with MX-1 tumors and allowed to grow to 50-100 mm3. The animals were dosed with cyclophosphamide (100 or 80 mpk). This was considered Day 1. Two weeks later the animals were pair matched after tumor regression and dosing BID with the MMPI was begun until the end of the experiment. Tumors were measured weekly.
# MX-1 tumors [5] = test: MX-1 Breast Tumor with Taxol: MMPI BID, endpoint 1.5 g; type: in vivo, Mice; conditions: MX-1 tumor
# Method: MDS=mean days to tumor weight of 1.5 g 4. MX-1 Breast Tumor with Taxol:
# Mice were implanted with MX-1 tumors and allowed to grow to 50-100 mg. The animals were pair matched and this was considered Day 1. Treatment with MMPI was begun BID on Day 1 until the end of the experiment. […] Tumors were measured weekly until an endpoint of 1.5 g was reached.
# SK-mes tumors = test: SK-mes Tumor with Taxol: MMPI BID, endpoint 1.0 g; type: in vivo, Mice
# Method: 5. SK-mes Tumor with Taxol
# (§1) Mice were implanted with SK-mes tumors and allowed to grow to 50-100 mg. The animals were pair matched and this was considered Day 1. Treatment with MMPI was begun BID on Day 1 until the end of the experiment. Taxol was injected IP (18 or 9 mpk) QD for 5 days (days 1-5). Tumors were measured weekly until an endpoint of 1.0 g was reached.
# HT-29 tumors = test: HT-29 Tumor with Irinotecan: MMPI BID, endpoint 1.0 g; type: in vivo, Mice
# Method: 6. HT-29 Tumor with Irinotecan
# as §1, with “HT-29” for “SK-mes”, “Irinotecan” for “Taxol”, “(100” for “(18”, “50” for “9”
# [6] = dose dependent at 27, 125 and 375 µg; cited from earlier work
# colonic epithelia = conditions: variety of cell model systems including colonic epithelia; cited from earlier work
# [7] = doses of 15 mg/kg/day; cited from earlier work
# Primary tumors = conditions: cited from earlier work
# [8] = mmpi alone, Compound M14 20 mpk BID
# [9] = mmpi alone, Compound M14 100 mpk BID
# [10] = taxol 9 mpk + Compound M14 20 mpk BID
# [11] = taxol 9 mpk + Compound M14 100 mpk BID
# [12] = taxol 18 mpk + Compound M14 20 mpk BID
# [13] = taxol 18 mpk + Compound M14 100 mpk BID
compound,measurement,setting,value
2-Pyrolylthiochromone,inhibition,melanoma,37%
"CNC(=O)[C@H](CC1CCCCC1)NC(=O)[C@H](CC(C)C)[C@H](O)C(=O)NO (relative stereo) [BB-1433, Butanediamide, N1-[1(cyclohexylmethyl)-2(methylamino)-2-oxoethyl]-N4,3-dihydroxy-2-(2-methylpropyl)-, [2R[N1(S*),2R*,3S*]]-]",bone mineral density loss,[1],inhibited
"CNC(=O)[C@@H](NC(=O)[C@H](CC(C)C)[C@H](O)C(=O)NO)C(C)(C)C (relative stereo) [marimastat, N4-[2,2-dimethyl-1-[(methylamino)carbonyl]propyl]-N1,2-dihydroxy-3 (2-methylpropyl)-, [2S-[N4(R*),2R*,3S*]]-)]",most common drug-related toxicity,[2]; clinical trials,musculoskeletal pain and stiffness
same,rise of cancer-specific antigens used as surrogate markers for biological activity,"[2]; patients, Phase I/II",dose-related reduction
"CC1(C)SCCN(S(=O)(=O)c2ccc(Oc3ccc(-n4ccnc4)cc3)cc2)[C@H]1C(=O)NO [3(S)-N-hydroxy-4-(4-[4-(imidazol-1-yl)phenoxy]benzenesulfonyl)-2,2-dimethyl-tetrahydro-2H-1,4-thiazine-3-carboxamide]",weight loss inhibition,[3],gave 97.5%
"C#CCN1CCC(C(=O)NO)(S(=O)(=O)c2ccc(Sc3ccccc3)cc2)CC1.Cl [Compound M14, N-hydroxy-4-[[4-(phenylthio)phenyl]sulfonyl]-1-(2-propynyl)-4-piperidinecarboxamide monohydrochloride]",Tumor Volume at Day 25,PC-3 tumor cells; Compound M14 50 mpk bid with cisplatin 10 mpk ip day 8,110 mm^3
same,Tumor Volume at Day 25,"PC-3 tumor cells; Compound M14 alone, 50 mpk bid",480 mm^3
same,response (tumor volume),MX-1 breast tumor; Compound M14 10 mpk or 50 mpk PO bid for 26 days with Taxol 9 mpk for the first five days,improved response
same,Tumor Volume at Day 25,MX-1 breast tumor; Compound M14 @ 10 mpk + taxol @ 9 mpk,240 mm^3
same,Tumor Volume at Day 25,MX-1 breast tumor; Compound M14 @ 10 mpk PO bid alone,960 mm^3
same,Tumor Volume at Day 25,MX-1 breast tumor; Compound M14 @ 50 mpk + taxol @ 9 mpk,480 mm^3
same,Tumor Volume at Day 25,MX-1 breast tumor; Compound M14 @ 50 mpk PO bid alone,1260 mm^3
same,MDS (mean days to tumor weight of 1.5 g),"MX-1 tumors [4]; cyclophosphamide 0 mpk (so in the source), then Compound M14 200 mpk BID",53.9 days
same,MDS (mean days to tumor weight of 1.5 g),"MX-1 tumors [4]; cyclophosphamide 80 mpk, then Compound M14 50 mpk BID",44.2 days
same,MDS (mean days to tumor weight of 1.5 g),"MX-1 tumors [4]; cyclophosphamide 100 mpk, then Compound M14 50 mpk BID",43.7 days
same,MDS (mean days to tumor weight of 1.5 g),"MX-1 tumors [4]; cyclophosphamide 100 mpk, then Compound M14 200 mpk BID",52.7 days
same,MDS (MDS = 1.5 g),MX-1 tumors [5]; [8],34.7 days
same,MDS (MDS = 1.5 g),MX-1 tumors [5]; [9],32.2 days
same,MDS (MDS = 1.5 g),MX-1 tumors [5]; [10],39.3 days
same,MDS (MDS = 1.5 g),MX-1 tumors [5]; [11],46.7 days
same,MDS (MDS = 1.5 g),MX-1 tumors [5]; [12],59.3 days
same,MDS (MDS = 1.5 g),MX-1 tumors [5]; [13],61 days
same,MDS (MDS = 1.5 g),"MX-1 tumors [5]; taxol + mmpi as printed, taxol 9 mpk IP QD days 1-5, no MMPI dose printed",30.1 days
same,MDS (MDS = 1.5 g),"MX-1 tumors [5]; taxol + mmpi as printed, taxol 18 mpk IP QD days 1-5, no MMPI dose printed",56 days
same,MDS (MDS = 1.0 g),SK-mes tumors; [8],18 days
same,MDS (MDS = 1.0 g),SK-mes tumors; [9],24.7 days
same,MDS (MDS = 1.0 g),SK-mes tumors; [10],34.1 days
same,MDS (MDS = 1.0 g),SK-mes tumors; [11],34.8 days
same,MDS (MDS = 1.0 g),SK-mes tumors; [12],39.5 days
same,MDS (MDS = 1.0 g),SK-mes tumors; [13],43 days
same,MDS (MDS = 1.0 g),HT-29 tumors; Irinotecan 50 mpk + Compound M14 20 mpk BID,36.1 days
same,MDS (MDS = 1.0 g),HT-29 tumors; Irinotecan 50 mpk + Compound M14 100 mpk BID,44.4 days
same,MDS (MDS = 1.0 g),HT-29 tumors; Irinotecan 100 mpk + Compound M14 20 mpk BID,40.6 days
same,MDS (MDS = 1.0 g),HT-29 tumors; Irinotecan 100 mpk + Compound M14 100 mpk BID,51.4 days
same,MDS (MDS = 1.0 g),HT-29 tumors; [8],36 days
same,MDS (MDS = 1.0 g),HT-29 tumors; [9],37.9 days
CC(C)(S)[C@@H](N)C(=O)O [D-penicillamine],allergic encephalitis symptom scores,[6],reduced
"CCc1c2c(nc3ccc(OC(=O)N4CCC(N5CCCCC5)CC4)cc13)-c1cc3c(c(=O)n1C2)COC(=O)[C@]3(O)CC [Irinotecan, reference compound]",MDS (MDS = 1.0 g),HT-29 tumors; Irinotecan alone 50 mpk IP QD days 1-5,38.1 days
same,MDS (MDS = 1.0 g),HT-29 tumors; Irinotecan alone 100 mpk IP QD days 1-5,36.7 days
"CC(=O)O[C@H]1C(=O)[C@@]2(C)[C@H]([C@H](OC(=O)c3ccccc3)[C@]3(O)C[C@H](OC(=O)[C@H](O)[C@@H](NC(=O)c4ccccc4)c4ccccc4)C(C)=C1C3(C)C)[C@]1(OC(C)=O)CO[C@@H]1C[C@@H]2O [Taxol, reference compound]",Tumor Volume at Day 25,"MX-1 breast tumor; taxol alone, 9 mpk ip first five days",1280 mm^3
same,MDS (MDS = 1.0 g),SK-mes tumors; taxol alone 9 mpk IP QD days 1-5,26.1 days
same,MDS (MDS = 1.0 g),SK-mes tumors; taxol alone 18 mpk IP QD days 1-5,31.5 days
C[C@H](CCC(=O)O)[C@H]1CC[C@H]2[C@@H]3[C@@H](O)C[C@@H]4C[C@H](O)CC[C@]4(C)[C@H]3CC[C@]12C [URSO],cytotoxicity,colonic epithelia,non cytotoxic
same,tolerability and toxicity,[7],extremely well tolerated and without toxicity
"N.N.[Cl][Pt][Cl] [cisplatin, Platinum, diamminedichloro-, (SP-4-2)-, reference compound]",Tumor Volume at Day 25,"PC-3 tumor cells; cisplatin alone, 10 mpk intraperitoneal on day 8",630 mm^3
"O=P1(N(CCCl)CCCl)NCCCO1 (stereo not shown) [cyclophosphamide, reference compound]",MDS (mean days to tumor weight of 1.5 g),MX-1 tumors [4]; cyclophosphamide 80 mpk alone,37.2 days
same,MDS (mean days to tumor weight of 1.5 g),MX-1 tumors [4]; cyclophosphamide 100 mpk alone,39.5 days
endostatin,toxicity,Primary tumors; in vivo,not observed
same,primary tumor response,Primary tumors; non-refolded suspensions,regressed to dormant microscopic lesions
